Experimental data taken from ChEMBL document CHEMBL1275577, “Study of the in vitro activities of rifaximin and comparator agents against 536 anaerobic intestinal bacteria from the perspective of potential utility in pathology involving bowel flora” (Antimicrob Agents Chemother, 2009).
≈ marks a conversion by molar mass, not a printed value.

Assays:
[1] = test system: Catenibacterium mitsuokai; assay: Antimicrobial activity against Catenibacterium mitsuokai by Wadsworth agar dilution method; assay type: functional
Hoylesella loescheii = assay: Antimicrobial activity against Prevotella loescheii by Wadsworth agar dilution method; assay type: functional
[2] = test system: Paeniclostridium sordellii; assay: Antimicrobial activity against Clostridium sordellii by Wadsworth agar dilution method; assay type: functional; conditions: Paraclostridium sordellii
Clostridium cocleatum = assay: Antimicrobial activity against Clostridium cocleatum by Wadsworth agar dilution method; assay type: functional; conditions: Thomasclavelia cocleata
Clostridium leptum = assay: Antimicrobial activity against Clostridium leptum by Wadsworth agar dilution method; assay type: functional
Eubacterium rectale = assay: Antimicrobial activity against Eubacterium rectale by Wadsworth agar dilution method; assay type: functional; conditions: Agathobacter rectalis
Eubacterium callanderi = assay: Antimicrobial activity against Eubacterium callanderi by Wadsworth agar dilution method; assay type: functional
Lactobacillus sp. = assay: Antimicrobial activity against Lactobacillus sp. by Wadsworth agar dilution method; assay type: functional
[3] = Antimicrobial activity against Bifidobacterium infantis by Wadsworth agar dilution method; assay type: functional, Bifidobacterium longum subsp. infantis; conditions: Bifidobacterium longum
Schaalia meyeri = assay: Antimicrobial activity against Actinomyces meyeri by Wadsworth agar dilution method; assay type: functional
Parvimonas micra = assay: Antimicrobial activity against Peptostreptococcus micros by Wadsworth agar dilution method; assay type: functional
Cutibacterium acnes = assay: Antimicrobial activity against Propionibacterium acnes by Wadsworth agar dilution method; assay type: functional
Peptoniphilus harei = assay: Antimicrobial activity against Peptoniphilus harei by Wadsworth agar dilution method; assay type: functional
[4] = test system: Lactobacillus acidophilus; assay: Antimicrobial activity against Lactobacillus acidophilus by Wadsworth agar dilution method; assay type: functional
Ruminococcus obeum = assay: Antimicrobial activity against Ruminococcus obeum by Wadsworth agar dilution method; assay type: functional; conditions: Blautia obeum
Fusobacterium mortiferum = assay: Antimicrobial activity against Fusobacterium mortiferum by Wadsworth agar dilution method in presence of beta-lactamase inhibitor Sulbactam; assay type: functional
Thomasclavelia ramosa = assay: Antimicrobial activity against Clostridium ramosum by Wadsworth agar dilution method; assay type: functional
Clostridium nexile = assay: Antimicrobial activity against Clostridium nexile by Wadsworth agar dilution method; assay type: functional; conditions: Faecalimonas nexilis
[5] = test system: Limosilactobacillus reuteri; assay: Antimicrobial activity against Lactobacillus reuteri by Wadsworth agar dilution method; assay type: functional
[6] = test system: Coprobacillus cateniformis; assay: Antimicrobial activity against Coprobacillus cateniformis by Wadsworth agar dilution method; assay type: functional
Eubacterium biforme = assay: Antimicrobial activity against Eubacterium biforme by Wadsworth agar dilution method; assay type: functional; conditions: Holdemanella biformis
[7] = test system: Lacticaseibacillus rhamnosus; assay: Antimicrobial activity against Lactobacillus rhamnosus by Wadsworth agar dilution method; assay type: functional
[8] = test system: Parabacteroides distasonis; assay: Antimicrobial activity against Parabacteroides distasonis by Wadsworth agar dilution method; assay type: functional
Flavonifractor plautii = assay: Antimicrobial activity against Clostridium orbiscindens by Wadsworth agar dilution method; assay type: functional
Actinomyces viscosus = assay: Antimicrobial activity against Actinomyces viscosus by Wadsworth agar dilution method; assay type: functional
[9] = test system: Clostridium lactatifermentans; assay: Antimicrobial activity against Clostridium lactatifermentans by Wadsworth agar dilution method; assay type: functional; conditions: Anaerotignum lactatifermentans
Clostridium perfringens = assay: Antimicrobial activity against Clostridium perfringens by Wadsworth agar dilution method; assay type: functional
Clostridium symbiosum = assay: Antimicrobial activity against Clostridium symbiosum by Wadsworth agar dilution method; assay type: functional
Clostridium tertium = assay: Antimicrobial activity against Clostridium tertium by Wadsworth agar dilution method; assay type: functional
[Clostridium] innocuum = Antimicrobial activity against Clostridium innocuum by Wadsworth agar dilution method; assay type: functional
Prevotella disiens = assay: Antimicrobial activity against Prevotella disiens by Wadsworth agar dilution method; assay type: functional
Eggerthella lenta = assay: Antimicrobial activity against Eggerthella lenta by Wadsworth agar dilution method; assay type: functional
Clostridioides difficile = assay: Antimicrobial activity against Clostridium difficile by Wadsworth agar dilution method; assay type: functional
[10] = test system: Prevotella melaninogenica; assay: Antimicrobial activity against Prevotella melaninogenica by Wadsworth agar dilution method; assay type: functional
[11] = test system: Propionibacterium propionicum; assay: Antimicrobial activity against Propionibacterium propionicum by Wadsworth agar dilution method; assay type: functional; conditions: Arachnia propionica
Bacteroides stercoris = assay: Antimicrobial activity against Bacteroides stercoris by Wadsworth agar dilution method; assay type: functional
Schaalia odontolytica = assay: Antimicrobial activity against Actinomyces odontolyticus by Wadsworth agar dilution method; assay type: functional
Ruminococcus lactaris = assay: Antimicrobial activity against Ruminococcus lactaris by Wadsworth agar dilution method; assay type: functional
Clostridium beijerinckii = assay: Antimicrobial activity against Clostridium beijerinckii by Wadsworth agar dilution method; assay type: functional
Ruminococcus torques = assay: Antimicrobial activity against Ruminococcus torques by Wadsworth agar dilution method; assay type: functional; conditions: Mediterraneibacter torques
Bilophila wadsworthia = assay: Antimicrobial activity against Bilophila wadsworthia by Wadsworth agar dilution method in presence of 1% pyruvic acid; assay type: functional
[12] = test system: Ruminococcus flavefaciens; assay: Antimicrobial activity against Ruminococcus flavefaciens by Wadsworth agar dilution method; assay type: functional
Anaerococcus prevotii = assay: Antimicrobial activity against Anaerococcus prevotii by Wadsworth agar dilution method; assay type: functional
Anaerococcus tetradius = assay: Antimicrobial activity against Anaerococcus tetradius by Wadsworth agar dilution method; assay type: functional
[13] = test system: Limosilactobacillus fermentum; assay: Antimicrobial activity against Lactobacillus fermentum by Wadsworth agar dilution method; assay type: functional
Desulfovibrio piger = assay: Antimicrobial activity against Desulfovibrio piger by Wadsworth agar dilution method; assay type: functional
[14] = test system: Bifidobacterium pseudolongum; assay: Antimicrobial activity against Bifidobacterium pseudolongum by Wadsworth agar dilution method; assay type: functional

## CC(=O)Oc1ccccc1C(=O)Nc1ncc([N+](=O)[O-])s1 [NITAZOXANIDE]
[1]
  MIC50: 2 µg/mL (≈ 6.51 µM)
  MIC90: 32 µg/mL (≈ 104 µM)
Hoylesella loescheii
  MIC50: 4 µg/mL (≈ 13 µM)
  MIC90: 8 µg/mL (≈ 26 µM)
[2]
  MIC50: 0.5 µg/mL (≈ 1.63 µM)
  MIC90: 4 µg/mL (≈ 13 µM)
Clostridium cocleatum
  MIC50: 0.5 µg/mL (≈ 1.63 µM)
  MIC90: 4 µg/mL (≈ 13 µM)
Clostridium leptum
  MIC50: 0.5 µg/mL (≈ 1.63 µM)
  MIC90: 4 µg/mL (≈ 13 µM)
Eubacterium rectale
  MIC50: 2 µg/mL (≈ 6.51 µM)
  MIC90: 32 µg/mL (≈ 104 µM)
Eubacterium callanderi
  MIC50: 2 µg/mL (≈ 6.51 µM)
  MIC90: 32 µg/mL (≈ 104 µM)
Lactobacillus sp.
  MIC50: 2 µg/mL (≈ 6.51 µM)
  MIC90: 32 µg/mL (≈ 104 µM)
[3]
  MIC50: 2 µg/mL (≈ 6.51 µM)
  MIC90: 32 µg/mL (≈ 104 µM)
Schaalia meyeri
  MIC50: 2 µg/mL (≈ 6.51 µM)
  MIC90: 32 µg/mL (≈ 104 µM)
Parvimonas micra
  MIC50: 0.5 µg/mL (≈ 1.63 µM)
  MIC90: 1 µg/mL (≈ 3.25 µM)
Cutibacterium acnes
  MIC50: 2 µg/mL (≈ 6.51 µM)
  MIC90: 32 µg/mL (≈ 104 µM)
Peptoniphilus harei
  MIC50: 0.5 µg/mL (≈ 1.63 µM)
  MIC90: 1 µg/mL (≈ 3.25 µM)
[4]
  MIC50: 2 µg/mL (≈ 6.51 µM)
  MIC90: 32 µg/mL (≈ 104 µM)
Ruminococcus obeum
  MIC50: 0.5 µg/mL (≈ 1.63 µM)
  MIC90: 1 µg/mL (≈ 3.25 µM)
Fusobacterium mortiferum
  MIC50: 1 µg/mL
  MIC90: 8 µg/mL
Thomasclavelia ramosa
  MIC50: 0.5 µg/mL (≈ 1.63 µM)
  MIC90: 4 µg/mL (≈ 13 µM)
Clostridium nexile
  MIC50: 0.5 µg/mL (≈ 1.63 µM)
  MIC90: 4 µg/mL (≈ 13 µM)
[5]
  MIC50: 2 µg/mL (≈ 6.51 µM)
  MIC90: 32 µg/mL (≈ 104 µM)
[6]
  MIC50: 2 µg/mL (≈ 6.51 µM)
  MIC90: 32 µg/mL (≈ 104 µM)
Eubacterium biforme
  MIC50: 2 µg/mL (≈ 6.51 µM)
  MIC90: 32 µg/mL (≈ 104 µM)
[7]
  MIC50: 2 µg/mL (≈ 6.51 µM)
  MIC90: 32 µg/mL (≈ 104 µM)
[8]
  MIC50: 4 µg/mL (≈ 13 µM)
  MIC90: 4 µg/mL (≈ 13 µM)
Flavonifractor plautii
  MIC: 0.25 µg/mL (≈ 0.814 µM)
  MIC50: 0.25 µg/mL (≈ 0.814 µM)
  MIC90: 0.5 µg/mL (≈ 1.63 µM)
Actinomyces viscosus
  MIC50: 2 µg/mL (≈ 6.51 µM)
  MIC90: 32 µg/mL (≈ 104 µM)
[9]
  MIC50: 0.5 µg/mL (≈ 1.63 µM)
  MIC90: 4 µg/mL (≈ 13 µM)
Clostridium perfringens
  MIC50: 2 µg/mL (≈ 6.51 µM)
  MIC90: 4 µg/mL (≈ 13 µM)
Clostridium symbiosum
  MIC50: 0.5 µg/mL (≈ 1.63 µM)
  MIC90: 4 µg/mL (≈ 13 µM)
Clostridium tertium
  MIC50: 0.5 µg/mL (≈ 1.63 µM)
  MIC90: 4 µg/mL (≈ 13 µM)
[Clostridium] innocuum
  MIC50: 1 µg/mL (≈ 3.25 µM)
  MIC90: 4 µg/mL (≈ 13 µM)
Prevotella disiens
  MIC50: 4 µg/mL (≈ 13 µM)
  MIC90: 8 µg/mL (≈ 26 µM)
Eggerthella lenta
  MIC50: 2 µg/mL (≈ 6.51 µM)
  MIC90: 32 µg/mL (≈ 104 µM)
Clostridioides difficile
  MIC: 0.25 µg/mL (≈ 0.814 µM)
  MIC50: 0.25 µg/mL (≈ 0.814 µM)
  MIC90: 0.5 µg/mL (≈ 1.63 µM)
[10]
  MIC50: 4 µg/mL (≈ 13 µM)
  MIC90: 8 µg/mL (≈ 26 µM)
[11]
  MIC50: 2 µg/mL (≈ 6.51 µM)
  MIC90: 32 µg/mL (≈ 104 µM)
Bacteroides stercoris
  MIC50: 4 µg/mL (≈ 13 µM)
  MIC90: 4 µg/mL (≈ 13 µM)
Schaalia odontolytica
  MIC50: 2 µg/mL (≈ 6.51 µM)
  MIC90: 32 µg/mL (≈ 104 µM)
Ruminococcus lactaris
  MIC50: 0.5 µg/mL (≈ 1.63 µM)
  MIC90: 1 µg/mL (≈ 3.25 µM)
Clostridium beijerinckii
  MIC50: 0.5 µg/mL (≈ 1.63 µM)
  MIC90: 4 µg/mL (≈ 13 µM)
Ruminococcus torques
  MIC50: 0.5 µg/mL (≈ 1.63 µM)
  MIC90: 1 µg/mL (≈ 3.25 µM)
Bilophila wadsworthia
  MIC50: 4 µg/mL
  MIC90: 4 µg/mL
[12]
  MIC50: 0.5 µg/mL (≈ 1.63 µM)
  MIC90: 1 µg/mL (≈ 3.25 µM)
Anaerococcus prevotii
  MIC50: 0.5 µg/mL (≈ 1.63 µM)
  MIC90: 1 µg/mL (≈ 3.25 µM)
Anaerococcus tetradius
  MIC50: 0.5 µg/mL (≈ 1.63 µM)
  MIC90: 1 µg/mL (≈ 3.25 µM)
[13]
  MIC50: 2 µg/mL (≈ 6.51 µM)
  MIC90: 32 µg/mL (≈ 104 µM)
Desulfovibrio piger
  MIC50: 1 µg/mL (≈ 3.25 µM)
  MIC90: 4 µg/mL (≈ 13 µM)
[14]
  MIC50: 2 µg/mL (≈ 6.51 µM)
  MIC90: 32 µg/mL (≈ 104 µM)
